Reference: article PMC7997032, “Organic synthesis and anti-influenza A virus activity of cyclobakuchiols A, B, C, and D” (PLoS ONE, 2021)
Where “and” joins values, the source holds several entries; their conditions need not be identical. Equal values may be shown once.

Assays:
A/PR/8/34 virus = assay: Influenza A viral growth assay (viral titer of culture media); format: cell-based, influenza A H1N1 virus; set-up: viral titer of culture media, individual replicate / viral titer of culture media, ave: unit not given here; conditions: A/PR/8/34 (PR8), 12.5uM; for viral titer of culture media, ave: average of #1-3 exp (n=9); for viral titer of culture media, individual replicate: replicates of #1-3 exp
A/WSN/33 virus = assay: as above; format: cell-based, influenza A H1N1 virus; conditions: A/WSN/33 (WSN), 12.5uM; for viral titer of culture media, ave: average of #1-3 exp (n=9); for viral titer of culture media, individual replicate: replicates of #1-3 exp

Row | SMILES | viral titer of culture media, ave (A/PR/8/34 virus; 12h) | viral titer of culture media, individual replicate (A/PR/8/34 virus; 12h) | viral titer of culture media, ave (A/PR/8/34 virus; 24h) | viral titer of culture media, individual replicate (A/PR/8/34 virus; 24h) | viral titer of culture media, ave (A/PR/8/34 virus; 48h) | viral titer of culture media, individual replicate (A/PR/8/34 virus; 48h) | viral titer of culture media, ave (A/PR/8/34 virus; 72h) | viral titer of culture media, individual replicate (A/PR/8/34 virus; 72h) | viral titer of culture media, ave (A/WSN/33 virus; 12h) | viral titer of culture media, individual replicate (A/WSN/33 virus; 12h) | viral titer of culture media, ave (A/WSN/33 virus; 24h) | viral titer of culture media, individual replicate (A/WSN/33 virus; 24h) | viral titer of culture media, ave (A/WSN/33 virus; 48h) | viral titer of culture media, individual replicate (A/WSN/33 virus; 48h) | viral titer of culture media, ave (A/WSN/33 virus; 72h) | viral titer of culture media, individual replicate (A/WSN/33 virus; 72h)
1 | C=C[C@]1(C)CC[C@H](C(C)(C)O)[C@@H](c2ccc(O)cc2)C1 [(1R,3R,4R)-cyclobakuchiol C] | 33333.3 | 40000 and 60000 (2×) and 30000 (2×) and 10000 (3×) and 50000 | 52222.2 | 190000 and 20000 and 90000 and 10000 (3×) and 70000 and 40000 and 30000 | 37777.8 | 50000 (2×) and 20000 and 80000 and 10000 (3×) and 40000 and 70000 | 43333.3 | 40000 and 20000 (2×) and 90000 and 10000 (2×) and 50000 and 70000 and 80000 | 8288.89 | 3000 and 1000 and 600 and 10000 (5×) and 20000 | 21277778 | 1600000 and 1000000 and 900000 and 30000000 (2×) and 21000000 and 9000000 and 70000000 and 28000000 | 246888889 | 100000000 and 150000000 and 62000000 and 140000000 and 350000000 (2×) and 410000000 and 280000000 and 380000000 | 155211111 | 10000000 and 20000000 and 6900000 and 130000000 and 170000000 and 230000000 (2×) and 300000000 (2×)
2 | C=C[C@]1(C)CC[C@H](C(=C)C)[C@@H](c2ccc(O)cc2)C1 [(1R,3R,4R)-cyclobakuchiol A] | 31111.1 | 90000 and 60000 and 30000 (2×) and 10000 (3×) and 20000 (2×) | 25555.6 | 40000 and 30000 (3×) and 10000 (3×) and 50000 and 20000 | 28888.9 | 50000 (2×) and 30000 (2×) and 10000 (2×) and 20000 (2×) and 40000 | 20000 | 10000 (6×) and 50000 and 30000 and 40000 | 10300 | 300 and 1400 and 1000 and 40000 and 10000 (5×) | 22944444 | 2600000 and 3900000 and 1000000 and 60000000 and 10000000 and 9000000 and 20000000 and 30000000 and 70000000 | 177111111 | 50000000 and 54000000 and 10000000 and 210000000 (2×) and 230000000 and 190000000 and 380000000 and 260000000 | 106555556 | 10000000 (2×) and 7000000 and 200000000 and 150000000 (2×) and 60000000 and 330000000 and 42000000
3 | C=C[C@]1(C)CC[C@@H](C(C)(C)O)[C@H](c2ccc(O)cc2)C1 [(1R,3S,4S)-cyclobakuchiol D] | 23333.3 | 30000 (4×) and 40000 and 20000 and 10000 (3×) | 46666.7 | 100000 and 30000 and 80000 and 20000 and 10000 (2×) and 50000 (2×) and 70000 | 42222.2 | 40000 (2×) and 30000 and 90000 and 10000 (2×) and 20000 and 80000 and 60000 | 51111.1 | 100000 (2×) and 10000 (3×) and 40000 and 20000 and 90000 and 80000 | 10344.4 | 600 and 2000 and 500 and 20000 (3×) and 10000 (3×) | 25855556 | 2700000 and 4000000 and 1000000 and 30000000 (2×) and 10000000 and 80000000 and 25000000 and 50000000 | 191111111 | 80000000 and 50000000 (2×) and 300000000 (2×) and 250000000 (3×) and 190000000 | 140200000 | 90000000 and 14000000 and 7800000 and 140000000 and 130000000 and 100000000 and 210000000 and 280000000 and 290000000
